Source: the supplement of paper PMC12463676, “Small-molecule dissolution of stress granules by redox modulation benefits ALS models” (Nature Chemical Biology, 2025)

Experiments:
lipoamide = compound: NC(=O)CCCCC1CCSS1 [lipoamide]; experiment: thermal stability z-score vs DMSO; higher = more thermally stabilized by treatment; conditions: HeLa, lipoamide concentration 100 µM
Protocol: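 Cellular thermal proteome profiling in HeLa cells. Cells were treated with 100 µM lipoamide for 1 h, with or without 1 mM arsenate for a further 1 h, then heated to ten temperatures (37-66.3 °C), and soluble protein was quantified by TMT mass spectrometry relative to 0.1% DMSO controls. The thermal stability score (sum of log2 fold changes minus the abundance score) was transformed to a z-score; mean of n = 3 experiments.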

potassium arsenate = compound: O=[As]([O-])(O)O.[K+] [potassium arsenate]; experiment: as above; conditions: HeLa; arsenate concentration 1 mM
Protocol: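 Cellular thermal proteome profiling in HeLa cells treated with 1 mM arsenate for 1 h (DMSO pretreatment), heated to ten temperatures (37-66.3 °C). Soluble protein was quantified by TMT mass spectrometry relative to DMSO controls; the thermal stability score was transformed to a z-score; mean of n = 3 experiments.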

[1] = arsenate co-treatment: 1 mM arsenate 1 h
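Note: each temperature applied for 3 min, abundance score taken as mean log2 fold change at the two lowest temperatures, z-score obtained by mean subtraction and division by SD.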

## TMEM11 (UniProt P17152)
lipoamide; [1]
  thermal stability z-score: -0.251
lipoamide; arsenate co-treatment: none
  thermal stability z-score: -0.145
Potassium arsenate
  thermal stability z-score: -1.1

## ATG16L1 (UniProt Q676U5)
lipoamide; [1]
  thermal stability z-score: 0.346
lipoamide; arsenate co-treatment: none
  thermal stability z-score: 0.282
Potassium arsenate
  thermal stability z-score: -0.533

## KIAA0907 (UniProt Q7Z7F0)
lipoamide; [1]
  thermal stability z-score: -0.462
lipoamide; arsenate co-treatment: none
  thermal stability z-score: -1.09
Potassium arsenate
  thermal stability z-score: -0.94

## RFC4 (UniProt P35249)
lipoamide; [1]
  thermal stability z-score: -0.184
lipoamide; arsenate co-treatment: none
  thermal stability z-score: -0.331
Potassium arsenate
  thermal stability z-score: 0.802

## SERBP1 (UniProt Q8NC51)
lipoamide; [1]
  thermal stability z-score: 0.533
lipoamide; arsenate co-treatment: none
  thermal stability z-score: 0.5
Potassium arsenate
  thermal stability z-score: -0.0206

## FOXK2 (UniProt Q01167)
lipoamide; [1]
  thermal stability z-score: 0.0506
lipoamide; arsenate co-treatment: none
  thermal stability z-score: -0.306
Potassium arsenate
  thermal stability z-score: 0.133

## BLVRA (UniProt P53004)
lipoamide; [1]
  thermal stability z-score: 0.283
lipoamide; arsenate co-treatment: none
  thermal stability z-score: -0.236
Potassium arsenate
  thermal stability z-score: -0.0313

## VIPAS39 (UniProt Q9H9C1)
lipoamide; [1]
  thermal stability z-score: -0.0571
lipoamide; arsenate co-treatment: none
  thermal stability z-score: 0.338
Potassium arsenate
  thermal stability z-score: 0.358

## RNF213 (UniProt Q63HN8)
lipoamide; [1]
  thermal stability z-score: -0.473
lipoamide; arsenate co-treatment: none
  thermal stability z-score: -0.111
Potassium arsenate
  thermal stability z-score: -0.0363

## TMEM237 (UniProt Q96Q45)
lipoamide; [1]
  thermal stability z-score: 0.0486
lipoamide; arsenate co-treatment: none
  thermal stability z-score: 0.457
Potassium arsenate
  thermal stability z-score: -1.23

## FARP1 (UniProt Q9Y4F1)
lipoamide; [1]
  thermal stability z-score: -0.118
lipoamide; arsenate co-treatment: none
  thermal stability z-score: -1.38
Potassium arsenate
  thermal stability z-score: -2.23

## PDIA4 (UniProt P13667)
lipoamide; [1]
  thermal stability z-score: -2.99
lipoamide; arsenate co-treatment: none
  thermal stability z-score: -2.13
Potassium arsenate
  thermal stability z-score: 0.648

## BRCC3 (UniProt P46736)
lipoamide; [1]
  thermal stability z-score: -0.0792
lipoamide; arsenate co-treatment: none
  thermal stability z-score: 0.172
Potassium arsenate
  thermal stability z-score: 0.468

## DAB2 (UniProt P98082)
lipoamide; [1]
  thermal stability z-score: 0.216
lipoamide; arsenate co-treatment: none
  thermal stability z-score: 0.404
Potassium arsenate
  thermal stability z-score: 1.73

## SFPQ (UniProt P23246)
lipoamide; [1]
  thermal stability z-score: 2.47
lipoamide; arsenate co-treatment: none
  thermal stability z-score: 2.22
Potassium arsenate
  thermal stability z-score: 1.15

## NUDT15 (UniProt Q9NV35)
lipoamide; [1]
  thermal stability z-score: 0.686
lipoamide; arsenate co-treatment: none
  thermal stability z-score: 0.121
Potassium arsenate
  thermal stability z-score: -0.373

## HAGH (UniProt Q16775)
lipoamide; [1]
  thermal stability z-score: 0.41
lipoamide; arsenate co-treatment: none
  thermal stability z-score: -0.0853
Potassium arsenate
  thermal stability z-score: 0.158

## NPTN (UniProt Q9Y639)
lipoamide; [1]
  thermal stability z-score: 0.275
lipoamide; arsenate co-treatment: none
  thermal stability z-score: -0.0241
Potassium arsenate
  thermal stability z-score: 0.798

## ECT2 (UniProt Q9H8V3)
lipoamide; [1]
  thermal stability z-score: -0.0726
lipoamide; arsenate co-treatment: none
  thermal stability z-score: -0.00204
Potassium arsenate
  thermal stability z-score: -0.475

## ERCC3 (UniProt P19447)
lipoamide; [1]
  thermal stability z-score: 0.0686
lipoamide; arsenate co-treatment: none
  thermal stability z-score: 0.0573
Potassium arsenate
  thermal stability z-score: 0.156

## SGK1 (UniProt O00141)
lipoamide; [1]
  thermal stability z-score: 0.0815
lipoamide; arsenate co-treatment: none
  thermal stability z-score: -0.0515
Potassium arsenate
  thermal stability z-score: 0.187

## NPRL3 (UniProt Q12980)
lipoamide; [1]
  thermal stability z-score: -0.0487
lipoamide; arsenate co-treatment: none
  thermal stability z-score: 0.0269
Potassium arsenate
  thermal stability z-score: -0.104

## CDR2L (UniProt Q86X02)
lipoamide; [1]
  thermal stability z-score: 0.891
lipoamide; arsenate co-treatment: none
  thermal stability z-score: 0.86
Potassium arsenate
  thermal stability z-score: -0.419

## ITPR3 (UniProt Q14573)
Sequence of UniProt Q14573 (Q14573 whole entry): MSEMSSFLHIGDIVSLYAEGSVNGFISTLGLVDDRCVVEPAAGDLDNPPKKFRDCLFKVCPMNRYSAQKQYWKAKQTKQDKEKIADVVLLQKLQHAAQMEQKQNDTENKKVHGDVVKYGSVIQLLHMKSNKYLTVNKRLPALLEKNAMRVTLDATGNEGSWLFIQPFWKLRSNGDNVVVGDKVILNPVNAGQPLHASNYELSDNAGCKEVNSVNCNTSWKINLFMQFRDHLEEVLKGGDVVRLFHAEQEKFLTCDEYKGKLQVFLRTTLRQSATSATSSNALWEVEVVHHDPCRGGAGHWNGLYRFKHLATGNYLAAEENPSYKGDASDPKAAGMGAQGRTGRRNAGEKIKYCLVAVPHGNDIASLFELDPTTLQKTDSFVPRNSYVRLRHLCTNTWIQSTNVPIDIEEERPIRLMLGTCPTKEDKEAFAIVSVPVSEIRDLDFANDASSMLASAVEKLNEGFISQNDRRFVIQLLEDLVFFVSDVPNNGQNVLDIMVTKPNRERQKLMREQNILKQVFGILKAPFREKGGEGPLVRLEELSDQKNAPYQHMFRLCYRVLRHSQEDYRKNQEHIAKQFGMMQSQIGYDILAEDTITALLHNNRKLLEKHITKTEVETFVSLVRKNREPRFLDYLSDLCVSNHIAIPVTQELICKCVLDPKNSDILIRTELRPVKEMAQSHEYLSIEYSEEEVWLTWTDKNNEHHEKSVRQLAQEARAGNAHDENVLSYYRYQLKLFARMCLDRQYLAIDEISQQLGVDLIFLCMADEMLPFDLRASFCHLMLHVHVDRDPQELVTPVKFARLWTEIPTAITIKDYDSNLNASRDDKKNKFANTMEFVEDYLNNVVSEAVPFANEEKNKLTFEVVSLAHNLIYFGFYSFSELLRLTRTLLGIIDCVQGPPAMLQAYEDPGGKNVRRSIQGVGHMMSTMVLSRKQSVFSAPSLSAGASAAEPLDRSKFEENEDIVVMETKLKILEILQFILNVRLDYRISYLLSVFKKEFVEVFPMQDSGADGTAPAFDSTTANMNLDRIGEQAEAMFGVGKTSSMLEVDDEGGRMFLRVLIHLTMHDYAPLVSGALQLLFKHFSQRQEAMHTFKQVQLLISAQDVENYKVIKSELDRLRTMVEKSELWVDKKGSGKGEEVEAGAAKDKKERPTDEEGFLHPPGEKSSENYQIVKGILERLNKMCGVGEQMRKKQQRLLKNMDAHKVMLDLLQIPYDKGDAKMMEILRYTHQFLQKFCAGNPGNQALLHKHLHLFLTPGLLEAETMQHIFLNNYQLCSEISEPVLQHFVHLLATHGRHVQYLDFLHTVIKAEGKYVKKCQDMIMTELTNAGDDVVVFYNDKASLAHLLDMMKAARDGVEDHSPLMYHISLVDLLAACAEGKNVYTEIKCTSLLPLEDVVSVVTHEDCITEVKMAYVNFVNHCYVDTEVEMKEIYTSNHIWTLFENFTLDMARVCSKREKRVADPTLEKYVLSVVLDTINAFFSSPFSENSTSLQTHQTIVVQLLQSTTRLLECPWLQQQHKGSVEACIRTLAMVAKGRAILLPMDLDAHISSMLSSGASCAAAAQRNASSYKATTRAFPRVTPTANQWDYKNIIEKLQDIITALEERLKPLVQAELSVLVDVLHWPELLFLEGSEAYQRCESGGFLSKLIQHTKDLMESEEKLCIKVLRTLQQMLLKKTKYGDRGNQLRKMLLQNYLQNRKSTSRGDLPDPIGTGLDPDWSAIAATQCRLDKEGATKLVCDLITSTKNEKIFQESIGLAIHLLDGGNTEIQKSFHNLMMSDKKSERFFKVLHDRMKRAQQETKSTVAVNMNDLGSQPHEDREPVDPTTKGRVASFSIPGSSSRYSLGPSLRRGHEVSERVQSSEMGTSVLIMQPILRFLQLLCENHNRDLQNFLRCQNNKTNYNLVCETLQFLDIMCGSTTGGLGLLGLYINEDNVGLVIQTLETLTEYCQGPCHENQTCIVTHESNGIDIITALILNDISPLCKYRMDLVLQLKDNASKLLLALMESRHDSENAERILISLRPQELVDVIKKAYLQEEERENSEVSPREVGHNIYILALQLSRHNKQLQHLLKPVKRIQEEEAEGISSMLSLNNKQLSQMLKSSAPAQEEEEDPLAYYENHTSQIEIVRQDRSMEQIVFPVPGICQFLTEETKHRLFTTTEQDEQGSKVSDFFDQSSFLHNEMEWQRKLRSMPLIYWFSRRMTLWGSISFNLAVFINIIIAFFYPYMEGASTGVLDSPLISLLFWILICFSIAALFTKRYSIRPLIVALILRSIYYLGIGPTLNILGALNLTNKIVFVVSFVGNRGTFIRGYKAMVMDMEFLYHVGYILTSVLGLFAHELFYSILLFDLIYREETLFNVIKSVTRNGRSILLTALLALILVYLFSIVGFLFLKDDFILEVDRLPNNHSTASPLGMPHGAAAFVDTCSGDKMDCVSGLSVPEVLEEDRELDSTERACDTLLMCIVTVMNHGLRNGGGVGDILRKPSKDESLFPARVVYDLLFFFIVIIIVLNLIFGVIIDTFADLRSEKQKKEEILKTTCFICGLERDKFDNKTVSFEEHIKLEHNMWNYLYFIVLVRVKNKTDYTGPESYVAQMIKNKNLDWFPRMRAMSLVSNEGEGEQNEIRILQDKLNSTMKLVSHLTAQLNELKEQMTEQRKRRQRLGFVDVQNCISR
lipoamide; [1]
  thermal stability z-score: -1.24
lipoamide; arsenate co-treatment: none
  thermal stability z-score: -0.526
Potassium arsenate
  thermal stability z-score: -0.418

## ASNA1 (UniProt O43681)
lipoamide; [1]
  thermal stability z-score: -0.234
lipoamide; arsenate co-treatment: none
  thermal stability z-score: -0.285
Potassium arsenate
  thermal stability z-score: -0.178

## PKN1 (UniProt Q16512)
lipoamide; [1]
  thermal stability z-score: -0.436
lipoamide; arsenate co-treatment: none
  thermal stability z-score: -0.52
Potassium arsenate
  thermal stability z-score: -0.513

## RPS11 (UniProt P62280)
lipoamide; [1]
  thermal stability z-score: 0.621
lipoamide; arsenate co-treatment: none
  thermal stability z-score: 0.352
Potassium arsenate
  thermal stability z-score: -1.11

## NCSTN (UniProt Q92542)
lipoamide; [1]
  thermal stability z-score: -0.537
lipoamide; arsenate co-treatment: none
  thermal stability z-score: -0.624
Potassium arsenate
  thermal stability z-score: -0.207

## HIBADH (UniProt P31937)
Sequence of UniProt P31937 (P31937 whole entry): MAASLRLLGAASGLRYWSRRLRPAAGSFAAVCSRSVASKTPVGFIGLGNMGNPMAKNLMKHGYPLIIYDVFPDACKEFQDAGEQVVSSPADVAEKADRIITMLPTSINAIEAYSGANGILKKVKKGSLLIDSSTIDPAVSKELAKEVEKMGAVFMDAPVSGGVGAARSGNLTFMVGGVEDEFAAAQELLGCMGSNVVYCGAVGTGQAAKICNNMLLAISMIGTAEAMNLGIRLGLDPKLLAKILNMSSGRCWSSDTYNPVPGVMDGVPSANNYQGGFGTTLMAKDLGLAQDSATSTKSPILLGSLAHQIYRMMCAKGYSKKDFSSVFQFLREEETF
lipoamide; [1]
  thermal stability z-score: -1.36
lipoamide; arsenate co-treatment: none
  thermal stability z-score: -0.391
Potassium arsenate
  thermal stability z-score: -1.36

## GRIPAP1 (UniProt Q4V328)
lipoamide; [1]
  thermal stability z-score: 0.163
lipoamide; arsenate co-treatment: none
  thermal stability z-score: 0.254
Potassium arsenate
  thermal stability z-score: 1.53

## ITGAV (UniProt P06756)
lipoamide; [1]
  thermal stability z-score: -0.283
lipoamide; arsenate co-treatment: none
  thermal stability z-score: -0.316
Potassium arsenate
  thermal stability z-score: -0.323

## RPUSD3 (UniProt Q6P087)
lipoamide; [1]
  thermal stability z-score: 0.12
lipoamide; arsenate co-treatment: none
  thermal stability z-score: 0.0857
Potassium arsenate
  thermal stability z-score: 0.085

## ISG15 (UniProt P05161)
lipoamide; [1]
  thermal stability z-score: 0.471
lipoamide; arsenate co-treatment: none
  thermal stability z-score: 0.327
Potassium arsenate
  thermal stability z-score: 0.355

## COX19 (UniProt Q49B96)
Sequence of UniProt Q49B96 (Q49B96 whole entry): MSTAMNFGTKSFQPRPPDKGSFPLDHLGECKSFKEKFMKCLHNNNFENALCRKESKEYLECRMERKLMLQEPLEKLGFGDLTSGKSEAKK
lipoamide; [1]
  thermal stability z-score: 0.659
lipoamide; arsenate co-treatment: none
  thermal stability z-score: 0.945
Potassium arsenate
  thermal stability z-score: 0.412

## DNAJB1 (UniProt P25685)
lipoamide; [1]
  thermal stability z-score: 0.448
lipoamide; arsenate co-treatment: none
  thermal stability z-score: 0.397
Potassium arsenate
  thermal stability z-score: 0.294

## NDC80 (UniProt O14777)
lipoamide; [1]
  thermal stability z-score: -0.361
lipoamide; arsenate co-treatment: none
  thermal stability z-score: 0.254
Potassium arsenate
  thermal stability z-score: 1.71

## SEC16A (UniProt O15027)
lipoamide; [1]
  thermal stability z-score: 0.237
lipoamide; arsenate co-treatment: none
  thermal stability z-score: 1.39
Potassium arsenate
  thermal stability z-score: 0.285

## COL4A2 (UniProt P08572)
lipoamide; [1]
  thermal stability z-score: -1.15
lipoamide; arsenate co-treatment: none
  thermal stability z-score: -0.802
Potassium arsenate
  thermal stability z-score: 0.138

## ERCC2 (UniProt P18074)
lipoamide; [1]
  thermal stability z-score: 0.408
lipoamide; arsenate co-treatment: none
  thermal stability z-score: 0.701
Potassium arsenate
  thermal stability z-score: 0.0533

## ISY1 (UniProt Q9ULR0)
lipoamide; [1]
  thermal stability z-score: 0.997
lipoamide; arsenate co-treatment: none
  thermal stability z-score: 0.693
Potassium arsenate
  thermal stability z-score: -0.872

## SUOX (UniProt P51687)
lipoamide; [1]
  thermal stability z-score: -0.266
lipoamide; arsenate co-treatment: none
  thermal stability z-score: -0.279
Potassium arsenate
  thermal stability z-score: 0.168

## DNAH1 (UniProt Q9P2D7)
lipoamide; [1]
  thermal stability z-score: -0.00768
lipoamide; arsenate co-treatment: none
  thermal stability z-score: 0.171
Potassium arsenate
  thermal stability z-score: 0.0212

## TAF6 (UniProt P49848)
lipoamide; [1]
  thermal stability z-score: -0.0822
lipoamide; arsenate co-treatment: none
  thermal stability z-score: -0.089
Potassium arsenate
  thermal stability z-score: 0.318

## CCDC94 (UniProt Q9BW85)
lipoamide; [1]
  thermal stability z-score: -0.377
lipoamide; arsenate co-treatment: none
  thermal stability z-score: -0.352
Potassium arsenate
  thermal stability z-score: -0.951

## PEX11B (UniProt O96011)
lipoamide; [1]
  thermal stability z-score: -0.443
lipoamide; arsenate co-treatment: none
  thermal stability z-score: -0.349
Potassium arsenate
  thermal stability z-score: -0.497

## PDLIM5 (UniProt Q96HC4)
lipoamide; [1]
  thermal stability z-score: -0.252
lipoamide; arsenate co-treatment: none
  thermal stability z-score: -0.371
Potassium arsenate
  thermal stability z-score: -2.23

## NOL12|V9GYY5 (UniProt V9GYY5)
lipoamide; [1]
  thermal stability z-score: 0.0645
lipoamide; arsenate co-treatment: none
  thermal stability z-score: -1.5
Potassium arsenate
  thermal stability z-score: 0.699

## PPL (UniProt O60437)
lipoamide; [1]
  thermal stability z-score: -0.117
lipoamide; arsenate co-treatment: none
  thermal stability z-score: -0.141
Potassium arsenate
  thermal stability z-score: 0.125

## TTL (UniProt Q8NG68)
Sequence of UniProt Q8NG68 (Q8NG68 whole entry): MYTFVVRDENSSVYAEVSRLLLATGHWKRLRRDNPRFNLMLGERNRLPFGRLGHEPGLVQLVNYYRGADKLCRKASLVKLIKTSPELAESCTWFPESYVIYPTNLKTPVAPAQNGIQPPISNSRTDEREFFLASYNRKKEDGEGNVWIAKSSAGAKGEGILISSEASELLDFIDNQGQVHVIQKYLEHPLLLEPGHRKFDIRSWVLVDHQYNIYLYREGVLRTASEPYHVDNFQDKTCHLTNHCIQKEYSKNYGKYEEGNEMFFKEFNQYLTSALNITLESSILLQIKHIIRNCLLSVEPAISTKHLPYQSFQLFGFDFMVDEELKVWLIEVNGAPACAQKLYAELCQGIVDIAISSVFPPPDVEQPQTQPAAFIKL
lipoamide; [1]
  thermal stability z-score: -0.0821
lipoamide; arsenate co-treatment: none
  thermal stability z-score: 0.166
Potassium arsenate
  thermal stability z-score: -0.126

## NDUFB4 (UniProt O95168)
lipoamide; [1]
  thermal stability z-score: 0.137
lipoamide; arsenate co-treatment: none
  thermal stability z-score: 0.173
Potassium arsenate
  thermal stability z-score: 0.489

## ALG8 (UniProt Q9BVK2)
Sequence of UniProt Q9BVK2 (Q9BVK2 whole entry): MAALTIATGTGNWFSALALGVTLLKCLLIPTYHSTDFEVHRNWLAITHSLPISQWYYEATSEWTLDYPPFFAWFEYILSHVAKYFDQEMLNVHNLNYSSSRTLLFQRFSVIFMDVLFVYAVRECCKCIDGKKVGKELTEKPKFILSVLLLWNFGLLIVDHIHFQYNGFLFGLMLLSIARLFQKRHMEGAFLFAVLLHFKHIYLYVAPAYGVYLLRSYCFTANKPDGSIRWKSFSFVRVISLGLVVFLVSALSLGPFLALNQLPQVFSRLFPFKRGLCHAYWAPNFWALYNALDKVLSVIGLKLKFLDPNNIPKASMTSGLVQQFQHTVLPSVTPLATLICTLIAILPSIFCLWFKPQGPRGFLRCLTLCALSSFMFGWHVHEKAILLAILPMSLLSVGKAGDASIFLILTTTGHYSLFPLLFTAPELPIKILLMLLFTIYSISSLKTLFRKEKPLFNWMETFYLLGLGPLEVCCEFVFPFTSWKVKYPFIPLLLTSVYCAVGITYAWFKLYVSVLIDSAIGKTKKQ
lipoamide; [1]
  thermal stability z-score: 0.425
lipoamide; arsenate co-treatment: none
  thermal stability z-score: -0.262
Potassium arsenate
  thermal stability z-score: 0.491

## SLC4A1AP (UniProt Q9BWU0)
Sequence of UniProt Q9BWU0 (Q9BWU0 whole entry): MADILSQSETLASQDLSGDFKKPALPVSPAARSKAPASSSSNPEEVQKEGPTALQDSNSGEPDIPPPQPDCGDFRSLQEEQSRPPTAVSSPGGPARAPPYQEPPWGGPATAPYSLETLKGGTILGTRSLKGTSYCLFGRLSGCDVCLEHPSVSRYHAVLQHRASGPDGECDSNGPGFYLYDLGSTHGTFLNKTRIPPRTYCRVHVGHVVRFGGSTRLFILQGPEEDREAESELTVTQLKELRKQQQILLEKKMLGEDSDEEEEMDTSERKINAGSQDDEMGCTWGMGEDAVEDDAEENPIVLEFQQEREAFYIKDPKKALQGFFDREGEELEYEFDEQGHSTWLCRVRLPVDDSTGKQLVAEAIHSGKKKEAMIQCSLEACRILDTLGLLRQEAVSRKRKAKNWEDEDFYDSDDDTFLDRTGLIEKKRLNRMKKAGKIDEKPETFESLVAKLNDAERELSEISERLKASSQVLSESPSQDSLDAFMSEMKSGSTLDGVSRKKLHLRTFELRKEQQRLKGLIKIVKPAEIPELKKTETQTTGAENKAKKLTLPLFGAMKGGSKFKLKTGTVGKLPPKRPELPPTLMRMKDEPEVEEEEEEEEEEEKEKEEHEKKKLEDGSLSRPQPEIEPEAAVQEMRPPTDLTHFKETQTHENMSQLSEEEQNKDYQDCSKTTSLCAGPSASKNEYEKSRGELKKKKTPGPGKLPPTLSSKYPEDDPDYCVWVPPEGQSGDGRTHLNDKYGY
lipoamide; [1]
  thermal stability z-score: 0.445
lipoamide; arsenate co-treatment: none
  thermal stability z-score: 0.341
Potassium arsenate
  thermal stability z-score: -1.27

## SYNJ1 (UniProt O43426)
lipoamide; [1]
  thermal stability z-score: 0.305
lipoamide; arsenate co-treatment: none
  thermal stability z-score: -0.14
Potassium arsenate
  thermal stability z-score: -0.277

## KCNK1 (UniProt O00180)
Sequence of UniProt O00180 (O00180 whole entry): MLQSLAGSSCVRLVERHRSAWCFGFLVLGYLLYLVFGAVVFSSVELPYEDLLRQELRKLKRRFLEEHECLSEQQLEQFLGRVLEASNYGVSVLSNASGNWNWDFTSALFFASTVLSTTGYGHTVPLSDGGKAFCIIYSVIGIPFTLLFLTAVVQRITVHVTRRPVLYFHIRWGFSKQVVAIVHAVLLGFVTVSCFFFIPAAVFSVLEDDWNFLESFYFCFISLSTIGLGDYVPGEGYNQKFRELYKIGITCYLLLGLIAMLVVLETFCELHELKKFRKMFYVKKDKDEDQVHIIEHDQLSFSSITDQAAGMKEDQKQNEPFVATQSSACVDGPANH
lipoamide; [1]
  thermal stability z-score: -1.31
lipoamide; arsenate co-treatment: none
  thermal stability z-score: 0.686
Potassium arsenate
  thermal stability z-score: -1.18

## RNPEP (UniProt Q9H4A4)
lipoamide; [1]
  thermal stability z-score: 0.126
lipoamide; arsenate co-treatment: none
  thermal stability z-score: -0.189
Potassium arsenate
  thermal stability z-score: 0.878
